What all share (assay type): cell-based
Assay [1] deals with E. coli ATCC 25922. The assay is described as follows: Minimum Inhibitory Concentration (MIC) assay, E. coli. As to conditions: Escherichia coli, ATCC25922; broth microdilution; read-out: MIC against E. coli. The procedure: (§1) The antimicrobial activity of the compounds of the invention may be evaluated by a number of methods, including the following visual minimum inhibitory concentration (MIC) assay. This assay determines the minimum concentration of compound required to inhibit growth of a bacterial strain.
(§2) Minimum Inhibitory Concentration (MIC) Assay
(§3) Whole-cell antibacterial activity is determined by broth microdilution using conditions recommended by the NCCLS (see National Committee for Clinical Laboratory Standards. 2001. Performance standards for antimicrobial susceptibility testing: 11th informational supplement. Vol. 21, no. 1, M100-S11. National Committee for Clinical Laboratory Standards, Wayne, Pa.). Test compounds are dissolved in DMSO and diluted 1:50 in Mueller-Hinton II broth (Becton-Dickinson) to produce a 256 μg/ml stock solution. In a 96-well microtiter plate, the compound solution is serially two-fold diluted in Mueller-Hinton II broth. After the compounds are diluted, a 50 μl aliquot of the test organism (˜1×10^6 cfu/mL) is added to each well of the microtiter plate. The final test concentrations ranges from 0.125-128 μg/mL. Inoculated plates are incubated in ambient air at 37° C. for 18 to 24 hours. The organisms selected for testing included laboratory strains S. aureus ATCC 29213 and E. coli ATCC 25922 (strains purchased from American Type Culture Collection, Manassas, Va.), S. aureus FQR700699, and Paeruginosa 27853. The minimum inhibitory concentration (MIC) is determined as the lowest concentration of compound that inhibited visible growth of the test organism.

The subject of assay [2] is MRSA strain ATCC 700699. Kind of assay: Minimum Inhibitory Concentration (MIC) assay, Methicillin Resistant S. Aureus. As to conditions: Staphylococcus aureus; broth microdilution; read-out: MIC against Methicillin Resistant S. Aureus.
Excerpt: It has been unexpectedly discovered that substitution of compounds of Formula I and Formula II with a methoxy substituent at the R8 position increases the anti-microbial activity of the compound against Methicillin resistant Staphylococcus Aureus bacteria while at the same time decreasing the cellular toxicity of the compound. The simultaneous increase in compound activity and decrease in compound toxicity provides a greater therapeutic range for compounds of Formula I and Formula II in which R8 is methoxy; i.e. the range of doses of such compounds that will produce beneficial effects without harmful side effects is increased. […] Therapeutic range is determined using a standard assay of cytotoxicity such as the Alamar blue assay provided in Example 10.
as §1, §2, §3

In assay [3] the test system is S. aureus ATCC 29213. Kind of assay: Minimum Inhibitory Concentration (MIC) assay, S. aureus. Conditions: Staphylococcus aureus, ATCC29213; broth microdilution; read-out: MIC against S. Aureus. The procedure: as §1, §2, §3
(Dilution methods test growth across graded concentrations, often in twofold steps.)

Structures can show the parent of a compound that is named as a salt. Where only a bound is given, the exact number is not on record here.

Turning to `[2H]C1([2H])CC(C(C)(C)N)C([2H])([2H])N1c1c(F)cc2c(=O)c3c(=O)[nH]sc3n(C3CC3)c2c1OC` (centres unmarked) [Compound 71, 7-(3-(2-amino-propan-2-yl)-2,2,5,5-tetradeuterated-pyrrolidin-1-yl)-9-cyclopropyl-6-fluoro-8-methoxyiso-thiazolo[5,4-b]quinoline-3,4(2H,9H)-dione], the MIC in assay [1], in assay [2] and in assay [3] was at most 1 µg/mL in each case.

As to `COc1c(N2CC(C)C(C#N)C2)c(F)cc2c(=O)c3c(=O)[nH]sc3n(C3CC3)c12` (centres unmarked) [Compound 100, 1-(9-cyclo-propyl-6-fluoro-8-methoxy-3,4-dioxo-2,3,4,9-tetrahydroisothia-zolo[5,4-b]quinolin-7-yl)-4-methyl-pyrrolidine-3-carbonitrile], the MIC in assay [1], in assay [2] and in assay [3] was at most 1 µg/mL in each case.

Consider `CNC(C)[C@@H]1CCN(c2ccc3c(=O)c4c(=O)[nH]sc4n(C4CC4)c3c2OC)C1` (stereo partly drawn) [Compound 103, (R)-9-cyclo-propyl-8-methoxy-7-(3-(1-(methylamino)-ethyl)pyrrolidin-1-yl)isothia-zolo[5,4-b]quinoline-3,4(2H,9H)-dione], for which the MIC in assay [1], in assay [2] and in assay [3] was at most 1 µg/mL in each case.

Consider `COc1c(N2CC[C@@H](CNC3CC3)C2)c(F)cc2c(=O)c3c(=O)[nH]sc3n(C3CC3)c12` [Compound 88, (S)-9-cyclo-propyl-7-(3-((cyclopropyl-amino)-methyl)-pyrrolidin-1-yl)-6-fluoro-8-methoxyiso-thiazolo[5,4-b]quinoline-3,4(2H,9H)-dione], for which the MIC in assay [1], in assay [2] and in assay [3] was at most 1 µg/mL each time.

As for `COc1c(N2CC(C)C(CN)C2)c(F)cc2c(=O)c3c(=O)[nH]sc3n(C3CC3)c12` (centres unmarked) [Compound 95, 7-(3-(amino-methyl)-4-methyl-pyrrolidin-1-yl)-9-cyclopropyl-6-fluoro-8-methoxyiso-thiazolo[5,4-b]quinoline-3,4(2H,9H)-dione], the minimal inhibitory concentration (MIC) in assay [1], in assay [2] and in assay [3] was at most 1 µg/mL throughout.

`COc1c(N2CCC(C(C)(C)N)C2)c(F)cc2c(=O)c3c(=O)[nH]sc3n(C3CC3)c12` (centres unmarked) [Compound 57, 7-(3-(2-aminopropan-2-yl)pyrrolidin-1-yl)-9-cyclopropyl-6-fluoro-8-methoxyiso-thiazolo[5,4-b]quinoline-3,4(2H,9H)-dione]: the MIC in assay [1], in assay [2] and in assay [3] was at most 1 µg/mL in each case.

For `COc1c(N2CC[C@@H](C(C)N)C2)ccc2c(=O)c3c(=O)[nH]sc3n(C3CC3)c12` (stereo partly drawn) [Compound 102, (R)-7-(3-(1-aminoethyl)-pyrrolidin-1-yl)-9-cyclopropyl-8-methoxyiso-thiazolo[5,4-b]quinoline-3,4(2H,9H)-dione], the MIC in assay [1], in assay [2] and in assay [3] was at most 1 µg/mL in each case.

With `CCn1c2s[nH]c(=O)c2c(=O)c2cc(F)c(N3CC[C@@H](C(C)(C)N)C3)c(OC)c21` [Compound 59, (R)-7-(3-(2-aminopropan-2-yl)pyrrolidin-1-yl)-9-ethyl-6-fluoro-8-methoxyiso-thiazolo[5,4-b]quinoline-3,4(2H,9H)-dione], the MIC in assay [2] and in assay [3] was at most 1 µg/mL in each case.

Take `COc1c(N2CC[C@H](C(C)NC3CC3)C2)c(F)cc2c(=O)c3c(=O)[nH]sc3n(C3CC3)c12` (stereo partly drawn) [Compound 94, (S)-9-cyclo-propyl-7-(3-(1-(cyclo-propylamino)ethyl)-pyrrolidin-1-yl)-6-fluoro-8-methoxyiso-thiazolo[5,4-b]quinoline-3,4(2H,9H)-dione]: the MIC in assay [1], in assay [2] and in assay [3] was at most 1 µg/mL each time.

With `CCNC(C)[C@@H]1CCN(c2c(F)cc3c(=O)c4c(=O)[nH]sc4n(C4CC4)c3c2OC)C1` (stereo partly drawn) [Compound 77, (R)-9-cyclo-propyl-7-(3-(1-(ethyl-amino)ethyl)pyrrolidin-1-yl)-6-fluoro-8-methoxyiso-thiazolo[5,4-b]quinoline-3,4(2H,9H)-dione], the MIC in assay [1], in assay [2] and in assay [3] was at most 1 µg/mL in each case.

As to `CCNC(C)(C)[C@@H]1CCN(c2c(F)cc3c(=O)c4c(=O)[nH]sc4n(C4CC4)c3c2OC)C1` [Compound 89, (R)-9-cyclo-propyl-7-(3-(2-(ethyl-amino)propan-2-yl)pyrrolidin-1-yl)-6-fluoro-8-methoxyiso-thiazolo[5,4-b]quinoline-3,4(2H,9H)-dione], the MIC in assay [1], in assay [2] and in assay [3] was at most 1 µg/mL in each case.

On to `COc1c(N2CC[C@@H](C(C)(C)N)C2)ccc2c(=O)c3c(=O)[nH]sc3n(C3CC3)c12` [Compound 54, (R)-7-(3-(2-aminopropan-2-yl)pyrrolidin-1-yl)-9-cyclopropyl-8-methoxyiso-thiazolo[5,4-b]quinoline-3,4(2H,9H)-dione, hydrochloride], for which the MIC in assay [1], in assay [2] and in assay [3] was at most 1 µg/mL each time.

As for `COc1c(N2CC[C@@H](C3(N)CC3)C2)c(F)cc2c(=O)c3c(=O)[nH]sc3n(C3CC3)c12` [Compound 55, (R)-7-(3-(1-amino-cyclopropyl)pyrrolidin-1-yl)-9-cyclopropyl-6-fluoro-8-methoxyiso-thiazolo[5,4-b]quinoline-3,4(2H,9H)-dione, hydrochloride], the MIC in assay [1], in assay [2] and in assay [3] was at most 1 µg/mL each time.

Regarding `COc1c(N2CC[C@@H]([C@H](C)N)C2)ccc2c(=O)c3c(=O)[nH]sc3n(C3CC3)c12` [Compound 111, 7-((R)-3-((S)-1-aminoethyl)-pyrrolidin-1-yl)-9-cyclo-propyl-8-methoxyiso-thiazolo[5,4-b]quinoline-3,4(2H,9H)-dione], the MIC in assay [2] and in assay [3] was at most 1 µg/mL in each case.

Turning to `CNC(C)[C@@H]1CCN(c2c(F)cc3c(=O)c4c(=O)[nH]sc4n(C4CC4)c3c2OC)C1` (stereo partly drawn) [Compound 74, (R)-9-cyclopropyl-6-fluoro-8-methoxy-7-(3-(1-(methyl-amino)ethyl)-pyrrolidin-1-yl)isothia-zolo[5,4-b]quinoline-3,4(2H,9H)-dione], the MIC in assay [1], in assay [2] and in assay [3] was at most 1 µg/mL each time.

Consider `COc1c(N2CCC(CN)C2)c(F)cc2c(=O)c3c(=O)[nH]sc3n(C3CC3)c12` (centres unmarked) [Compound 66, 7-(3-(aminomethyl)-pyrrolidin-1-yl)-9-cyclopropyl-6-fluoro-8-methoxyiso-thiazolo[5,4-b]quinoline-3,4(2H,9H)-dione], for which the MIC in assay [2] and in assay [3] was at most 1 µg/mL in each case.

For the compound `CN[C@@H](C)[C@@H]1CCN(c2c(F)cc3c(=O)c4c(=O)[nH]sc4n(C4CC4)c3c2OC)C1` [Compound 108, 9-cyclopropyl-6-fluoro-8-methoxy-7-((R)-3-((S)-1-(methylamino)-ethyl)pyrrolidin-1-yl)isothia-zolo[5,4-b]quinoline-3,4(2H,9H)-dione], the MIC in assay [2] and in assay [3] was at most 1 µg/mL each time.

As to `COc1c(N(C)C)c(F)cc2c(=O)c3c(=O)[nH]sc3n(C3CC3)c12` [Compound 42, 9-cyclopropyl-7-(dimethyl-amino)-6-fluoro-8-methoxyiso-thiazolo[5,4-b]quinoline-3,4(2H,9H)-dione], the MIC in assay [1], in assay [2] and in assay [3] was at most 1 µg/mL in each case.

The MIC is the lowest concentration found to suppress growth.

The values are drawn from patent US8044204B2, “8-methoxy-9H-isothiazolo[5,4-b]quinoline-3,4-diones and related compounds as anti-infective agents” (Achillion Pharmaceuticals, Inc., priority 2005, dated 2011).
